Values of other authors in PubChem BioAssay AID1259409 (Chemical Carcinogenesis Research Information System (CCRIS), 2018).

System: rodent chemically induced tumor inhibition, incidence and multiplicity
Test: CCRIS tumor inhibitor studies

SMILES: Cc1[nH]cnc1CSCCN=C(NC#N)N(C)N=O
- tumour outcome (control, treated, inhibition, significance) (Carcinogen: 7,12-DIMETHYLBENZ[A]ANTHRACENE, 57-97-6, Dose [Inhibitor]: 1 G/L IN DRINKING WATER AD LIBITUM BEGINNING 1 WK POST PROMOTER DOSE FOR DURATION OF STUDY (STUDY DURATION: 52 WK), Route [Inhibitor]: ORAL, Species: MOUSE, Strain/Sex: SENCAR/FEMALE, Target Tissue: Type of Lesion: SKIN: CARCINOMA, Dose [Carcinogen]: 120 UG IN 0.2 ML ACETONE ONCE, Promoter: 12-O-TETRADECANOYLPHORBOL-13-ACETATE, 16561-29-8): 24/30 (80%), 18/25 (72%), 10%, not calculated
- tumour outcome (control, treated, inhibition, significance) (Carcinogen: 7,12-DIMETHYLBENZ[A]ANTHRACENE, 57-97-6, Dose [Inhibitor]: 1 G/L IN DRINKING WATER AD LIBITUM BEGINNING 1 WK POST PROMOTER DOSE FOR DURATION OF STUDY (STUDY DURATION: 52 WK), Route [Inhibitor]: ORAL, Species: MOUSE, Strain/Sex: SENCAR/FEMALE, Target Tissue: Type of Lesion: SKIN: KERATOACANTHOMA, Dose [Carcinogen]: 120 UG IN 0.2 ML ACETONE ONCE, Promoter: 12-O-TETRADECANOYLPHORBOL-13-ACETATE, 16561-29-8): 16/30 (53%), 8/25 (32%), 40%, p<0.05
- tumour outcome (control, treated, inhibition, significance) (Carcinogen: 7,12-DIMETHYLBENZ[A]ANTHRACENE, 57-97-6, Dose [Inhibitor]: 1 MG/WK BEGINNING 1 WK POST FIRST PROMOTER DOSE FOR DURATION OF STUDY (STUDY DURATION: 52 WK), Route [Inhibitor]: DERMAL, Species: MOUSE, Strain/Sex: SENCAR/FEMALE, Target Tissue: Type of Lesion: SKIN: CARCINOMA, Dose [Carcinogen]: 120 UG IN 0.2 ML ACETONE ONCE, Promoter: 12-O-TETRADECANOYLPHORBOL-13-ACETATE, 16561-29-8): 24/30 (80%), 23/30 (77%), 4%, not calculated
- tumour outcome (control, treated, inhibition, significance) (Carcinogen: 7,12-DIMETHYLBENZ[A]ANTHRACENE, 57-97-6, Dose [Inhibitor]: 1 MG/WK BEGINNING 1 WK POST FIRST PROMOTER DOSE FOR DURATION OF STUDY (STUDY DURATION: 52 WK), Route [Inhibitor]: DERMAL, Species: MOUSE, Strain/Sex: SENCAR/FEMALE, Target Tissue: Type of Lesion: SKIN: KERATOACANTHOMA, Dose [Carcinogen]: 120 UG IN 0.2 ML ACETONE ONCE, Promoter: 12-O-TETRADECANOYLPHORBOL-13-ACETATE, 16561-29-8): 16/30 (53%), 15/30 (50%), 6%, not calculated
- tumour outcome (control, treated, inhibition, significance) (Carcinogen: 7,12-DIMETHYLBENZ[A]ANTHRACENE, 57-97-6, Dose [Inhibitor]: 1130 PPM IN DRINKING WATER BEGINNING 1 WK POST LAST CARCINOGEN DOSE (STUDY DURATION: 14 MO), Route [Inhibitor]: ORAL, Species: MOUSE, Strain/Sex: B6D2F1/FEMALE, Target Tissue: Type of Lesion: LUNG: TUMOR, Dose [Carcinogen]: 1 MG IN OLIVE OIL 1/WK FOR 4 WK, Promoter: NONE USED): 11/27 (41%), 13/23 (56%), -37%, not calculated
- tumour outcome (control, treated, inhibition, significance) (Carcinogen: 7,12-DIMETHYLBENZ[A]ANTHRACENE, 57-97-6, Dose [Inhibitor]: 1130 PPM IN DRINKING WATER BEGINNING 1 WK POST LAST CARCINOGEN DOSE (STUDY DURATION: 14 MO), Route [Inhibitor]: ORAL, Species: MOUSE, Strain/Sex: B6D2F1/FEMALE, Target Tissue: Type of Lesion: LYMPHOID TISSUE: NEOPLASMS, Dose [Carcinogen]: 1 MG IN OLIVE OIL 1/WK FOR 4 WK, Promoter: NONE USE): 12/29 (41%), 12/28 (43%), -4%, not calculated
- tumour outcome (control, treated, inhibition, significance) (Carcinogen: 7,12-DIMETHYLBENZ[A]ANTHRACENE, 57-97-6, Dose [Inhibitor]: 1130 PPM IN DRINKING WATER BEGINNING 1 WK POST LAST CARCINOGEN DOSE (STUDY DURATION: 14 MO), Route [Inhibitor]: ORAL, Species: MOUSE, Strain/Sex: B6D2F1/FEMALE, Target Tissue: Type of Lesion: MAMMARY GLAND: TUMOR, Dose [Carcinogen]: 1 MG IN OLIVE OIL 1/WK FOR 4 WK, Promoter: NONE USED): 7/29 (24%), 7/28 (25%), -4%, not calculated
- tumour outcome (control, treated, inhibition, significance) (Carcinogen: URETHANE, 51-79-6, Dose [Inhibitor]: 1000 PPM IN DRINKING WATER BEGINNING 10 WK POST LAST CARCINOGEN DOSE (STUDY DURATION: 14 MO), Route [Inhibitor]: ORAL, Species: MOUSE, Strain/Sex: BALB/MALE, Target Tissue: Type of Lesion: LUNG: TUMOR, Dose [Carcinogen]: 1 G/KG 1/WK FOR 2 WK, Promoter: NONE USED): 20/20 (100%), 17/17 (100%), 0%, not calculated
- tumour outcome (control, treated, inhibition, significance) (Carcinogen: URETHANE, 51-79-6, Dose [Inhibitor]: 1800 PPM IN DRINKING WATER BEGINNING 10 WK POST LAST CARCINOGEN DOSE (STUDY DURATION: 14 MO), Route [Inhibitor]: ORAL, Species: MOUSE, Strain/Sex: BALB/MALE, Target Tissue: Type of Lesion: LUNG: TUMOR, Dose [Carcinogen]: 1 G/KG 1/WK FOR 2 WK, Promoter: NONE USED): 20/20 (100%), 17/17 (100%), 0%, not calculated

SMILES: CC(C)=C1C=CC(O)CC1 (centres undefined)
- tumour outcome (control, treated, inhibition, significance) (Carcinogen: 7,12-DIMETHYLBENZ[A]ANTHRACENE, 57-97-6, Dose [Inhibitor]: 0, 12 NMOL PER REPEATED APPLICATION FOR 20 WK (STUDY DURATION: 20 WK), Route [Inhibitor]: DERMAL, Species: MOUSE, Strain/Sex: CD-1/FEMALE, Target Tissue: Type of Lesion: SKIN: TUMOR, Dose [Carcinogen]: 100 UG ONCE, Promoter: OKADAIC ACID, 78111-17-8): 87%, 67%, 23%, not calculated

SMILES: COc1cc2c(cc1OC)[C@@H]1C(=O)c3ccc4c(c3O[C@@H]1CO2)C=CC(C)(C)O4
- tumour outcome (control, treated, inhibition, significance) (Carcinogen: 7,12-DIMETHYLBENZ[A]ANTHRACENE, 57-97-6, Dose [Inhibitor]: 0, 33 UG 2/WK FOR 15 WK APPLIED 1 HR PRIOR TO EACH PROMOTER DOSE (STUDY DURATION: 15 WK), Route [Inhibitor]: DERMAL, Species: MOUSE, Strain/Sex: CD-1/FEMALE, Target Tissue: Type of Lesion: SKIN: TUMOR, Dose [Carcinogen]: 100 UG ONCE, Promoter: 12-O-TETRADECANOYLPHORBOL-13-ACETATE, 16561-29-8): 60%, 10%, 83%, p<0.05
- tumour outcome (control, treated, inhibition, significance) (Carcinogen: 7,12-DIMETHYLBENZ[A]ANTHRACENE, 57-97-6, Dose [Inhibitor]: 0, 330 UG 2/WK FOR 15 WK APPLIED 1 HR PRIOR TO EACH PROMOTER DOSE (STUDY DURATION: 15 WK), Route [Inhibitor]: DERMAL, Species: MOUSE, Strain/Sex: CD-1/FEMALE, Target Tissue: Type of Lesion: SKIN: TUMOR, Dose [Carcinogen]: 100 UG ONCE, Promoter: 12-O-TETRADECANOYLPHORBOL-13-ACETATE, 16561-29-8): 60%, 0%, 100%, p<0.05
- tumour outcome (control, treated, inhibition, significance) (Carcinogen: N-METHYL-N-NITROSOUREA, 684-93-5, Dose [Inhibitor]: 0, 2 MG/KG BW 5 D/WK FOR DURATION OF STUDY BEGINNING 2 WK PRIOR TO CARCINOGEN DOSE (STUDY DURATION: 194 D), Route [Inhibitor]: GAVAGE, Species: RAT, Strain/Sex: SPRAGUE-DAWLEY/FEMALE, Target Tissue: Type of Lesion: MAMMARY GLAND: ADENOCARCINOMA, Dose [Carcinogen]: 50 MG/KG BW ONCE, Promoter: NONE USED): 100%, 100%, 0%, not significant
- tumour outcome (control, treated, inhibition, significance) (Carcinogen: N-METHYL-N-NITROSOUREA, 684-93-5, Dose [Inhibitor]: 0, 4 MG/KG BW 5 D/WK FOR DURATION OF STUDY BEGINNING 2 WK PRIOR TO CARCINOGEN DOSE (STUDY DURATION: 194 D), Route [Inhibitor]: GAVAGE, Species: RAT, Strain/Sex: SPRAGUE-DAWLEY/FEMALE, Target Tissue: Type of Lesion: MAMMARY GLAND: ADENOCARCINOMA, Dose [Carcinogen]: 50 MG/KG BW ONCE, Promoter: NONE USED): 100%, 100%, 0%, not significant
